Laboratory results as given in US11634447B2 (priority 2012, dated 2023).

Test system: bacterial strain LF82 binding to the glycoprotein BSA-(Mannose)3
Test: Bacterial Binding Assay (BBA)
Format: cell-based, Escherichia coli
Settings: read-out: Bacterial Binding Assay IC50, LF82/Luciferase strain binding to BSA-(Man)3 coated plates, luminescence
Procedure, shortened: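 Inhibition of LF82/luciferase E. coli adhesion is read as luminescence after washing off unbound cells. Compound and bacteria (10^7 per well) are co-incubated 40-75 min at room temperature on wells coated with 0.5-2 μg/mL BSA-(Man)3, with BSA-only wells as background; IC50 values derived.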

## OC[C@H]1O[C@H](Cc2ccc(-c3ccc(C[C@H]4O[C@H](CO)[C@@H](O)[C@H](O)[C@@H]4O)cc3)cc2)[C@@H](O)[C@@H](O)[C@@H]1O [Compound 41, ((2R,3S,4R,5S,6R)-2-(Hydroxymethyl)-6-[[4-[4-[[(2R,3S,4R,5S,6R)-3,4,5-trihydroxy-6-(hydroxymethyl)tetrahydropyran-2-yl]methyl]phenyl]phenyl]methyl]tetrahydropyran-3,4,5-triol)]
  IC50: 550 nM
